Laboratory results from patent US8088819B2, “Derivatives of substituted 3-phenyl-1-(phenylthienyl)propan-1-ones and of 3-phenyl-1-(phenylfuranyl) propan-1-ones, preparation and use” (priority 2006, dated 2012).

How the values were obtained:
hPPARgamma [1] = molecular target: T1, hPPARgamma (Homo sapiens, UniProt P37231); assay: PPAR activation: Gal4-hPPARγ chimera luciferase transactivation in COS-7 cells, Method 1; assay type: cell-based; settings: COS-7, 24 h; for Emax: maximum percentage response relative to the reference rosiglitazone, read-out: hPPARgamma % max
T1 construct: expressed in transfected cells; host or cells: COS-7 (monkey kidney fibroblasts)
T1 sequence (P37231 238-503 limits assumed): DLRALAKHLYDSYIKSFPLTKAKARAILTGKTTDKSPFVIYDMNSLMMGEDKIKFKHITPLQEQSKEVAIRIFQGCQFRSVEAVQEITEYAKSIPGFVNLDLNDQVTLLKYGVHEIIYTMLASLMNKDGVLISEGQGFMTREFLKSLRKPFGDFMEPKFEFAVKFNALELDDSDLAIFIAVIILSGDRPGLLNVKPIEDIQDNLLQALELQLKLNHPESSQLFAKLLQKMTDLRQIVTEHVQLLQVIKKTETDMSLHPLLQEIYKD
Description: (§1) The activation of the PPARs was evaluated in vitro on a line of monkey kidney fibroblasts (COS-7) by measuring the transcriptional activity of chimeras constituted of the DNA binding domain of the Gal4 transcription factor of yeast and the ligand binding domain of the various PPARs. The compounds were tested at doses between 10^−5 and […] on the chimeras Gal4-PPARα, γ or δ, and the corresponding EC50 values were determined.
(§2) The COS-7 cells were obtained from the ATCC and were cultivated in DMEM medium supplemented with 10% (v/v) of fetal calf serum, 100 U/ml of penicillin (Gibco, Paisley, UK) and 2 mM of L-glutamine (Gibco, Paisley, UK). The cells were incubated at 37° C. in a humid atmosphere containing 5% CO2.
(§3) The plasmids Gal4(RE)_TkpGL3, pGal4-hPPARα, pGal4-hPPARγ, pGal4-hPPARδ and pGal4-φ are described in the literature (Raspe E et al., 1999). The constructs pGal4-hPPARα, pGal4-hPPARγ and pGal4-hPPARδ were obtained by cloning DNA fragments amplified by PCR corresponding to the DEF domains of the human nuclear receptors PPARα, PPARγ and PPARδ in the pGal4-φ vector.
(§4) The COS-7 cells in suspension were transfected with 150 ng of DNA per well, with a pGal4-PPAR/Gal4(RE)_TkpGL3 ratio of 1/10, in the presence of 10% fetal calf serum. The cells were seeded in 96-well plates (4×10^4 cells/well) and then incubated at 37° C. for 24 hours. Activation with the test compounds is carried out for 24 h at 37° C. in serum-free medium. At the end of the experiment, the cells were lysed and the luciferase activity was determined using the Steady-Lite™ HTS (Perkin Elmer) following the supplier's recommendations.

hPPARdelta [2] = molecular target: T2, hPPARdelta (Homo sapiens, UniProt Q03181); assay: PPAR activation: Gal4-hPPARδ chimera luciferase transactivation in COS-7 cells, Method 1; assay type: cell-based; settings: COS-7, 24 h; for Emax: maximum percentage response relative to the reference GW501516, read-out: hPPARdelta % max
T2 construct: expressed in transfected cells; host or cells: COS-7 (monkey kidney fibroblasts)
T2 sequence (Q03181 211-439 limits assumed): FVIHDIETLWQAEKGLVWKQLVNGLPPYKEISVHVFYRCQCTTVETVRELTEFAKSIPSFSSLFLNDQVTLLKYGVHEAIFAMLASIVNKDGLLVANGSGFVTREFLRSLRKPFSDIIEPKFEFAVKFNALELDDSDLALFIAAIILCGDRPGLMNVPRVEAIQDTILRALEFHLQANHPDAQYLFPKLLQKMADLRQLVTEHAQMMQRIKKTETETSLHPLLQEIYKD
Description: as §1, §2, §3, §4

hPPARalpha [3] = molecular target: T3, hPPARalpha (Homo sapiens, UniProt Q07869); assay: PPAR activation: Gal4-hPPARα chimera luciferase transactivation in COS-7 cells, Method 1; assay type: cell-based; settings: COS-7, 24 h; for Emax: maximum percentage response relative to the reference phenofibric acid, read-out: hPPARalpha % max
T3 construct: expressed in transfected cells; host or cells: COS-7 (monkey kidney fibroblasts)
T3 sequence (Q07869 239-466 limits assumed): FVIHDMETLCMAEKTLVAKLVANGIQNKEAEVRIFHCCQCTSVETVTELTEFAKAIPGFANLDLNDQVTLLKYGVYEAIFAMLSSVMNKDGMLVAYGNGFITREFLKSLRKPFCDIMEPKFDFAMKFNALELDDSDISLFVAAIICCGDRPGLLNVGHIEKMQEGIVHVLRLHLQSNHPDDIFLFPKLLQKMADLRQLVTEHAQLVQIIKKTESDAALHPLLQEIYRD
Description: as §1, §2, §3, §4

hPPARgamma [4] = molecular target: T1, hPPARgamma; assay: PPAR activation: Gal4-hPPARγ chimera luciferase transactivation in COS-7 cells, Method 2; assay type: cell-based; settings: COS-7, 24 h, Method 2; for Emax: maximum percentage response relative to the reference rosiglitazone, read-out: hPPARgamma % max; for EC50: 1% Ultroser, read-out: hPPARgamma EC50
Description: The activation of the PPARs was evaluated in vitro on a line of monkey kidney fibroblasts (COS-7) by measuring the transcriptional activity of chimeras constituted of the DNA binding domain of the Gal4 transcription factor of yeast and the ligand binding domain of the various PPARs.
Only the application of the transfection stage is slightly different. The details are presented below.
(§5) The adherent COS-7 cells are transfected with 40 μg of DNA per 225 cm^2 dish, with a pGal4-PPAR/Gal4(RE)_TkpGL3 ratio of 1/10, in the presence of 10% fetal calf serum. The cells are then detached and seeded in the absence of serum in 384-well plates (2×10^4 cells/well) and incubated for 4 hours at 37° C. The compounds are then diluted in a 96-well plate and transferred to the 384-well plate. Activation with the test compounds is carried out for an additional 24 h at 37° C. in the presence of 1% of Ultroser™ lipid-free synthetic serum (Biosepra). These last 2 stages are automated using a Genesis Freedom 200™ station (Tecan). At the end of the experiment, the cells are lysed and the luciferase activity is determined using the Steady-Lite™ HTS (Perkin Elmer) following the supplier's recommendations.

hPPARalpha [5] = molecular target: T3, hPPARalpha; assay: PPAR activation: Gal4-hPPARα chimera luciferase transactivation in COS-7 cells, Method 2; assay type: cell-based; settings: COS-7, 24 h; for EC50: 1% Ultroser; for Emax: maximum percentage response relative to the reference phenofibric acid, read-out: hPPARalpha % max
Description: as §1
(§6) The principle, the cells and the plasmids used for example 5 were also employed in this example. Only the application of the transfection stage is slightly different. The details are presented below.
as §5

hPPARdelta [6] = molecular target: T2, hPPARdelta; assay: PPAR activation: Gal4-hPPARδ chimera luciferase transactivation in COS-7 cells, Method 2; assay type: cell-based; settings: COS-7, 24 h; for EC50: 1% Ultroser; for Emax: maximum percentage response relative to the reference GW501516, read-out: hPPARdelta % max
Description: as §1, §6, §5

Structure (SMILES)	Emax (hPPARgamma [1])	melting point	EC50 (hPPARdelta [2])	Emax (hPPARdelta [2])	EC50 (hPPARalpha [3])	Emax (hPPARalpha [3])	EC50 (hPPARgamma [1])	Emax (hPPARgamma [4])	EC50 (hPPARgamma [4])	EC50 (hPPARalpha [5])	Emax (hPPARalpha [5])	EC50 (hPPARdelta [6])	Emax (hPPARdelta [6])
CC(C)(Oc1ccc(CCC(=O)c2ccc(-c3ccc(C(F)(F)F)cc3)s2)cc1Br)C(=O)O [Compound 36, 2-(2-bromo-4-(3-oxo-3-(5-(4-(trifluoromethyl)phenyl)thien-2-yl)propyl)phenoxy)-2-methylpropanoic acid]	63%	102 to 104 °C	9 nM	85%	5 nM	47%	–	–	–	–	–	–	–
CC(C)(Oc1ccc(CCC(=O)c2ccc(-c3ccc(OC(F)(F)F)cc3)s2)c(Cl)c1Cl)C(=O)O [Compound 44, 2-(2,3-dichloro-4-(3-oxo-3-(5-(4-(trifluoromethoxy)phenyl)thien-2-yl)propyl)phenoxy)-2-methylpropanoic acid]	46%	135 to 136 °C	27 nM	109%	16 nM	54%	100 nM	–	–	–	–	–	–
O=C(O)COc1ccc(CCC(=O)c2ccc(-c3ccc(C(F)(F)F)cc3)s2)cc1 [Compound 69, 2-(4-(3-oxo-3-(5-(4-(trifluoromethyl)phenyl)thien-2-yl)propyl)-phenoxy)acetic acid]	15%	182 to 183 °C	292 nM	90%	33 nM	61%	3530 nM	–	–	–	–	–	–
CCC(Oc1ccc(CCC(OCc2ccccc2)c2ccc(-c3ccc(C(F)(F)F)cc3)s2)cc1F)C(=O)O (centres unmarked) [Compound 70, 2-(4-(3-(benzyloxy)-3-(5-(4-(trifluoromethyl)phenyl)thien-2-yl)propyl)-2-fluorophenoxy)butanoic acid]	56%	–	216 nM	67%	227 nM	47%	970 nM	–	–	–	–	–	–
CCOC(CCc1ccc(OC(C)(C)C(=O)O)c(Cl)c1Cl)c1ccc(-c2ccc(C(F)(F)F)cc2)s1 (centres unmarked) [Compound 41, 2-(2,3-dichloro-4-(3-ethoxy-3-(5-(4-(trifluoromethyl)phenyl)thien-2-yl)propyl)phenoxy)-2-methylpropanoic acid]	–	–	–	–	–	–	–	36%	1490 nM	610 nM	49%	10 nM	76%
CCC(Oc1ccc(CCC(O)c2ccc(-c3ccc(C(F)(F)F)cc3)s2)cc1F)C(=O)O (centres unmarked) [Compound 30, 2-(2-fluoro-4-(3-hydroxy-3-(5-(4-(trifluoromethyl)phenyl)thien-2-yl)propyl)phenoxy)butanoic acid]	–	–	–	–	–	–	–	45%	3930 nM	50 nM	51%	1530 nM	80%
CC(C)(Oc1ccc(CCC(OCC2CCCCC2)c2ccc(-c3ccc(C(F)(F)F)cc3)s2)c(Cl)c1Cl)C(=O)O (centres unmarked) [Compound 42, 2-(2,3-dichloro-4-(3-(cyclohexylmethoxy)-3-(5-(4-(trifluoromethyl)phenyl)thien-2-yl)propyl)phenoxy)-2-methylpropanoic acid]	–	–	–	–	–	–	–	47%	890 nM	2000 nM	28%	260 nM	82.1%
O=C(O)COc1ccc(CCC(OCc2ccccc2)c2ccc(-c3ccc(C(F)(F)F)cc3)s2)cc1F (centres unmarked) [Compound 27, 2-(4-(3-(benzyloxy)-3-(5-(4-(trifluoromethyl)phenyl)thien-2-yl)-propyl)-2-fluorophenoxy)acetic acid]	30%	–	589 nM	77%	1310 nM	47%	2820 nM	–	–	–	–	–	–
CC(C)(Oc1ccc(CCC(OCc2ccc(I)cc2)c2ccc(-c3ccc(C(F)(F)F)cc3)s2)c(Cl)c1Cl)C(=O)O (centres unmarked) [Compound 6, 2-(4-(3-(4-iodobenzyloxy)-3-(5-(4-(trifluoromethyl)phenyl)thien-2-yl)propyl)-2,3-dichlorophenoxy)-2-methylpropanoic acid]	–	–	–	–	–	–	–	55%	4110 nM	7860 nM	41%	530 nM	92%
